Measured values: ChEMBL document CHEMBL4715916, “Synthesis and biological evaluation of a ring analogs of the selective CB2 inverse agonist SMM-189” (Bioorg Med Chem, 2021)
Calls of active or inactive are those of the source. The calls are words filed in the database; no cut-off is given here.

Experiments:
Cannabinoid receptor 1 [1] = target: T1, Cannabinoid receptor 1 (Homo sapiens, UniProt P21554); assay: Inverse agonist activity at cannabinoid CB1 receptor in human U2OS cells assessed as emission ratio using CCF4/AM as substrate preincubated for 5 hrs followed by substrate addition and measured after 2 hrs by Tango assay; type: cell-based; details: time 7.0 hrs
Homo sapiens = species: Homo sapiens; assay: Selectivity ratio of Ki for displacement of [3H]-CP55940 from human recombinant cannabinoid CB1 receptor expressed in HEK cell membranes to displacement of [3H]-CP55940 from human recombinant cannabinoid CB2 receptor expressed in HEK cell membranes
Cannabinoid receptor 2 [2] = target: T2, Cannabinoid receptor 2 (Homo sapiens, UniProt P34972); assay: Displacement of [3H]-CP55940 from human recombinant cannabinoid CB2 receptor expressed in HEK cell membranes incubated for 1.5 hrs by liquid scintillation counting method; design: species or system Cell membrane
Cannabinoid receptor 1 [3] = target: T1, Cannabinoid receptor 1; assay: Displacement of [3H]-CP55940 from human recombinant cannabinoid CB1 receptor expressed in HEK cell membranes incubated for 1.5 hrs by liquid scintillation counting method; design: species or system Cell membrane
Cannabinoid receptor 2 [4] = target: T2, Cannabinoid receptor 2; assay: Inverse agonist activity at human recombinant cannabinoid CB2 receptor expressed in HEK cells transfected with CNG assessed as increase in cAMP level measured up to 1 hr by ACTOne membrane potential dye based assay; type: functional, cell-based
Cannabinoid receptor 2 [5] = target: T2, Cannabinoid receptor 2; assay: Inverse agonist activity at cannabinoid CB2 receptor in human U2OS cells assessed as induction of beta-arrestin recruitment using CCF4/AM as substrate preincubated for 5 hrs followed by substrate addition and measured after 2 hrs by Tango assay; type: cell-based
Cannabinoid receptor 2 [6] = target: T2, Cannabinoid receptor 2; assay: Inverse agonist activity at human recombinant cannabinoid CB2 receptor expressed in HEK cells transfected with CNG assessed as increase in cAMP level measured up to 1 hr by ACTOne membrane potential dye based assay relative to control; type: functional, cell-based; details: time hrs <=1
Cannabinoid receptor 1 [7] = target: T1, Cannabinoid receptor 1; assay: Inverse agonist activity at cannabinoid CB1 receptor in human U2OS cells assessed as induction of beta-arrestin recruitment using CCF4/AM as substrate preincubated for 5 hrs followed by substrate addition and measured after 2 hrs by Tango assay; type: cell-based; details: time 7.0 hrs
Cannabinoid receptor 2 [8] = target: T2, Cannabinoid receptor 2; assay: Inverse agonist activity at cannabinoid CB2 receptor in human U2OS cells assessed as emission ratio using CCF4/AM as substrate preincubated for 5 hrs followed by substrate addition and measured after 2 hrs by Tango assay; type: cell-based; details: time 7.0 hrs; further: test concentration or dose not given here
Cannabinoid receptor 1 [9] = target: T1, Cannabinoid receptor 1; assay: Inverse agonist activity at human recombinant cannabinoid CB1 receptor expressed in HEK cells transfected with CNG assessed as increase in cAMP level measured up to 1 hr by ACTOne membrane potential dye based assay; type: functional, cell-based; details: time hrs <=1
Cannabinoid receptor 1 [10] = target: T1, Cannabinoid receptor 1; assay: Inverse agonist activity at human recombinant cannabinoid CB1 receptor expressed in HEK cells transfected with CNG assessed as increase in cAMP level measured up to 1 hr by ACTOne membrane potential dye based assay relative to control; type: functional, cell-based; details: time hrs <=1

T2 sequence (P34972 whole entry): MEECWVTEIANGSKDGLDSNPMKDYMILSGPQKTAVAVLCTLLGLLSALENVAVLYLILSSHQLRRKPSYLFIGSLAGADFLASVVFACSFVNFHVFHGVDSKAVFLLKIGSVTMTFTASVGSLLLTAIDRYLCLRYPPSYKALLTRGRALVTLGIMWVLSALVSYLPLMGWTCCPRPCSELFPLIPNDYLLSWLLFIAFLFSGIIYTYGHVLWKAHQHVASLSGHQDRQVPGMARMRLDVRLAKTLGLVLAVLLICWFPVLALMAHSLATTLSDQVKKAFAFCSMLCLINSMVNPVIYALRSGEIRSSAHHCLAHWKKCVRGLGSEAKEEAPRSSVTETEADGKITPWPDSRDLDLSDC
T1 sequence (P21554 whole entry): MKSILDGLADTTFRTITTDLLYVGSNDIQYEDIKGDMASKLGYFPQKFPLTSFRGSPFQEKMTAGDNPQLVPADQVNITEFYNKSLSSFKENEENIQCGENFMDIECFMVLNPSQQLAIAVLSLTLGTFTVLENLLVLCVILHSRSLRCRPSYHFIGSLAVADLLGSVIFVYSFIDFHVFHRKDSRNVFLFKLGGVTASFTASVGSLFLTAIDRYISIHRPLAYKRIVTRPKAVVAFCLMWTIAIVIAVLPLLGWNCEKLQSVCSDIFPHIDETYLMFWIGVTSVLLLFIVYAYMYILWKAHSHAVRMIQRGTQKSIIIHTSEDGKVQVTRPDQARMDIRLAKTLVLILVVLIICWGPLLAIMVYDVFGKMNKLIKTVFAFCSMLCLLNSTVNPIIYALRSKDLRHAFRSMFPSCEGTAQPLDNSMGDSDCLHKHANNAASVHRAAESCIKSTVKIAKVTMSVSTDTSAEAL

Row | SMILES | Ratio (Cannabinoid receptor 1 [1]) | Ratio Ki (Homo sapiens) | Ki (Cannabinoid receptor 2 [2]) | Ki (Cannabinoid receptor 1 [3]) | EC50 (Cannabinoid receptor 2 [4]) | EC50 (Cannabinoid receptor 2 [5]) | Emax (Cannabinoid receptor 2 [6]; filed as inverse agonist) | pEC50 (Cannabinoid receptor 1 [7]) | Ratio (Cannabinoid receptor 2 [8]; filed as inverse agonist) | pEC50 (Cannabinoid receptor 1 [9]) | Emax (Cannabinoid receptor 1 [10]) | Emax (Cannabinoid receptor 2 [6]) | pEC50 (Cannabinoid receptor 2 [4]; time hrs <=1) | Emax (Cannabinoid receptor 2 [4]; time hrs <=1) | pEC50 (Cannabinoid receptor 2 [5]; time 7.0 hrs) | Ratio (Cannabinoid receptor 2 [8])
1 | O=C(c1ccccc1)c1cc(O)c(-c2cccc(C(F)(F)F)c2)c(O)c1 | inactive | > 49 | 0.204 µM | > 10 µM | 0.24 µM | 3.47 µM | 66% | inactive | 1.41 | inactive | inactive | – | – | – | – | –
2 | O=C(c1ccccc1)c1cc(O)c(-c2cc(C(F)(F)F)cc(C(F)(F)F)c2)c(O)c1 | inactive | 8.86 | 0.215 µM | 1.9 µM | 0.372 µM | 1.41 µM | – | inactive | 0.91 | inactive | inactive | 22.9% | – | – | – | –
3 | Cc1cccc(-c2c(O)cc(C(=O)c3ccccc3)cc2O)c1 | inactive | 12.6 | 0.32 µM | 4.01 µM | 1.66 µM | > 10 µM | 40.3% | inactive | 2.3 | inactive | inactive | – | – | – | – | –
4 | O=C(c1ccccc1)c1cc(O)c(-c2ccc3c(c2)OCCO3)c(O)c1 | – | > 2.11 | 4.74 µM | > 10 µM | 4.9 µM | – | 49% | – | – | inactive | inactive | – | – | – | – | –
5 | O=C(c1cc(O)c(-c2cc(C(F)(F)F)cc(C(F)(F)F)c2)c(O)c1)c1cccs1 | inactive | 20 | 0.187 µM | 3.74 µM | 0.676 µM | 1.29 µM | 49.7% | inactive | 0.94 | inactive | inactive | – | – | – | – | –
6 | O=C(c1ccccc1)c1cc(O)c(-c2ccsc2)c(O)c1 | – | – | > 10 µM | > 10 µM | – | – | – | – | – | inactive | inactive | inactive | inactive | – | – | –
7 | O=C(c1ccccc1)c1cc(O)c(-c2ccnc(Cl)c2)c(O)c1 | – | – | > 10 µM | > 10 µM | – | – | – | – | – | inactive | inactive | inactive | inactive | – | – | –
8 | O=C(c1ccccc1)c1cc(O)c(-c2ccnc(F)c2)c(O)c1 | – | – | > 10 µM | > 10 µM | – | – | – | – | – | inactive | inactive | inactive | inactive | – | – | –
9 | Cc1cccc(-c2c(O)cc(C(=O)c3cccs3)cc2O)c1 | inactive | 9.77 | 0.975 µM | 9.53 µM | 0.2 µM | 6.17 µM | 51.7% | inactive | 2.68 | inactive | inactive | – | – | – | – | –
10 | O=C(c1cc(O)c(-c2cc(Cl)ccc2Cl)c(O)c1)c1cccs1 | inactive | > 22.4 | 0.447 µM | > 10 µM | 0.141 µM | > 10 µM | 61% | inactive | 1.46 | inactive | inactive | – | – | – | – | –
11 | O=C(c1cc(O)c(-c2cccc(CO)c2)c(O)c1)c1cccs1 | – | > 1.19 | 8.38 µM | > 10 µM | – | – | – | – | – | inactive | inactive | inactive | inactive | – | – | –
12 | O=C(c1ccccc1)c1cc(O)c(-c2ccc3c(c2)OCO3)c(O)c1 | – | – | > 10 µM | > 10 µM | – | – | – | – | – | inactive | inactive | inactive | – | inactive | – | –
13 | N#Cc1cc(-c2c(O)cc(C(=O)c3ccccc3)cc2O)ccc1F | inactive | > 5.44 | 1.84 µM | > 10 µM | 2.82 µM | – | 52.3% | inactive | – | inactive | inactive | – | – | – | inactive | inactive
14 | O=C(c1cc(O)c(-c2ccncc2)c(O)c1)c1cccs1 | – | – | > 10 µM | > 10 µM | – | – | – | – | – | inactive | inactive | inactive | inactive | – | – | –
15 | O=C(c1ccccc1)c1cc(O)c(-c2cc(F)cc(F)c2)c(O)c1 | inactive | 0.66 | 1.63 µM | 1.08 µM | 1.7 µM | 8.91 µM | 63% | inactive | 2.22 | inactive | inactive | – | – | – | – | –
16 | O=C(c1ccccc1)c1cc(O)c(-c2cc(Cl)ccc2Cl)c(O)c1 | inactive | > 42.9 | 0.233 µM | > 10 µM | 0.363 µM | 6.03 µM | 66.5% | inactive | 1.03 | inactive | inactive | – | – | – | – | –
17 | O=C(c1ccccc1)c1cc(O)c(-c2cccc(CO)c2)c(O)c1 | – | > 4 | 2.49 µM | > 10 µM | – | – | – | – | – | inactive | inactive | inactive | inactive | – | – | –
18 | Cc1ccc(Cn2nc(C(=O)N[C@@H]3C(C)(C)[C@@H]4CC[C@@]3(C)C4)cc2-c2ccc(Cl)c(C)c2)cc1 | – | – | – | – | – | – | – | inactive | – | – | – | – | – | – | – | –
19 | O=C(c1ccccc1)c1cc(O)c(-c2cc(Cl)cc(Cl)c2)c(O)c1 | inactive | 39.4 | – | – | – | – | 54.8% | inactive | 0.66 | inactive | inactive | – | – | – | – | –
20 | O=C(c1ccccc1)c1cc(O)c(-c2ccncc2)c(O)c1 | – | – | > 10 µM | > 10 µM | – | – | – | – | – | inactive | inactive | inactive | inactive | – | – | –
21 | O=C(c1ccccc1)c1cc(O)c(-c2ccoc2)c(O)c1 | – | > 7.53 | 1.33 µM | > 10 µM | 2.75 µM | – | – | – | – | inactive | inactive | -18.5% | – | – | – | –
